Experimental data as given in patent US20070249988A1, “Electrotransport Delivery of Nesiritide” (ALZA CORPORATION, priority 2006, published 2007).

How the values were obtained:
[1] = In vitro electrotransport of nesiritide using hydrogel reservoirs; type: in vitro ADME; conditions: heat separated human epidermis
Description: Suitable nesiritide flux rates can be achieved by selecting appropriate electrotransport conditions. […] The data shown in the figure were obtained using the transdermal delivery of nesiritide with a silver donor electrode at the anode and a silver chloride counter electrode at the cathode. […] The tests were performed on heat separated human epidermis.
In vitro electrotransport flux experiments were conducted using either synthetic polymeric Nulepore membranes or heat separated human cadaver epidermis. Custom-built horizontal diffusion cells were used for all in vitro skin flux experiments. Silver and silver chloride electrodes were used to apply current across the cell. Nesiritide hydrogels were placed between the silver anode and human heat-separated epidermis. In addition, a PVOH hydrogel containing a polymeric chloride source was placed between the silver anode and the drug hydrogel. A 1/10 dilution of Dulbecco's phosphate buffered saline (0.015 M NaCl) served as the receptor solution, which was continuously pumped through the receptor compartment. […]
The receptor samples were analyzed for nesiritide using a HPLC assay. In addition, as show in FIGS. 6B and 7B, formulations were also extracted for nesiritide and analyzed via a HPLC assay after use in a flux experiment.

[2] = Isocratic hydrophobic interaction chromatography (HIC); type: physicochemical
Description: Nesiritide was analyzed by isocratic hydrophobic interaction chromatography (HIC) using the conditions set forth in the table below to estimate the peptide's hydrophobicity.

[3] = Circular dichroic spectrometry (CD), secondary structure; type: physicochemical
Description: Circular dichroic spectrometry was used to assess the amount of secondary structure present in nesiritide under aqueous, low ionic strength conditions. In addition, changes in the value calculated for mean residual ellipticity were analyzed to determine if secondary structure, specifically α-helix, could be induced upon the addition of 2,2,2-trifluoroethanol (TFE) or high salt, or both, to nesiritide in aqueous solution at 0.8 mg/mL.
Several methods have been used to estimate the secondary structural components of proteins from the CD spectra. The techniques have been applied to peptide spectra with varying degrees of success (Sreerama, N., Woody, R. W. A Self-Consistent method for the Analysis of Protein Secondary Structure from Circular Dichroism, Analytical Biochemistry, 1993; 209 32-44; Yang, J. T. et al. Separation and Analysis of Peptides and Proteins, Methods Enzymology, 1986; 130 208-269). Computer programs were used to analyze the data from CD scans. Mean residue ellipticity ([θ]nm) was computed at each wavelength and compared to reference spectra to estimate the relative amounts of helix, sheet, turn and aperiodic secondary structure.
The secondary structure assumed by nesiritide in an aqueous environment and induced by the addition of TFE, NaCl or both, were analyzed by CD. The peptide was studied at both 32 and 20° C. The peptide was studied at two concentrations: 0.2 mg/mL (20° C.) to allow data to be obtained at wavelengths below 200 nm, and at 0.8 mg/mL (32° C.) to increase any tendency toward self association. The CD ellipticity values at 222 nm have been interpreted to best reflect the amount of α-helix. The fully helical peptide or protein would have [θ]222nm of −32,000° cm^2, while the peptide lacking secondary structure would have a value of ˜2400° cm^2.
The use of the lower concentration, with a 2 mm path, allowed data to be collected down to 197 nm. The difference spectrum (FIG. 1B) was resolved into component gaussian bands (Holladay, L. A., Savage, C. R., Cohen, S., Puett, D. Biochemistry, 1976; 15 2624-2633; Holladay, L. A., Hammonds, R. G., Jr., Puett, D. Biochemistry, 1974; 13 1653-1661) in order to estimate the amount of α-helix and β-sheet formed. Estimates of secondary structure were made by computing the ratio of the observed rotational strength (R cgs) with those for poly-L lysine in either the α-helical or β-sheet form. The table below gives the parameters of the resolved gaussians, and the estimates of secondary structure. Nesiritide in 40% TFE probably exists as a mixture of conformers.

[4] = Stability under donor conditions (buffer, RP-HPLC); type: physicochemical
Description: The stability of nesiritide at 32° C. under both donor and receptor conditions was evaluated.
The peptide was incubated in various buffer systems, both with and without human epidermis, at concentrations to be used for donor solutions. Experiments were conducted at 32° C. for 8 hours and 24 hours. The solutions were separated into portions and analyzed by RP-HPLC using the conditions described in the table below, both directly and after dilution to give a concentration of nesiritide at ˜100 μg/mL. In some cases, donor solutions were also removed and analyzed following ET Flux experiments.

[5] = Sedimentation equilibrium analytical ultracentrifugation (XLA), self-association; type: physicochemical; set-up: M(1 − vbar * p) observed: unit not given beside the values; conditions: for Residual Pattern / M(1 − vbar * p) observed: 10 mM ionic; for M(1 − vbar * p) observed: 32° C., 44,000 rpm
Description: Nesiritide's tendency towards self-association was assessed using sedimentation equilibrium analytical ultracentrifugation (XLA). An increase in the concentration of peptide in the donor formulation usually is expected to produce an increase in the rate of transport. With many peptides, raising the peptide concentration in solution will also heighten any tendency toward self-association. The conditions of the donor formulation are selected to maximize delivery and minimize aggregation. The development of peptide aggregates in solution can be determined directly by analytical ultracentrifugation. The sensitivity of detection requires at least 5% of the peptide exist as an aggregate.
Solutions of nesiritide at pH 6 and 7, (10 mM ionic imidazole) and pH 8 (10 mM ionic serinamide) were analyzed by sedimentation equilibrium ultracentrifugation. Samples were centrifuged to equilibrium at 44,000 rpm at 32° C., overnight. Absorbance as a function of radial position was determined at 258 nm.
When a highly charged peptide, such as nesiritide at pH 7, is formulated in a low ionic strength buffer, it will behave in a nonideal manner. Under such conditions, the apparent buoyant molecular weight will be lowered because of charge-charge repulsion. Theory has not been developed to estimate the magnitude of this effect when the bulk of the solution ionic strength arises from the peptide and its counter ions (as opposed to the case where the buffer ions contribute the majority of the ionic strength). The calculated value for M(1−vbar*ρ), given in the table below, was based on the behavior expected under ideal conditions.

[6] = 40% TFE difference spectrum, 0.2 mg/mL, 20° C., pH 7, 10 mM ionic cacodylate, 2 mm path
[7] = 3 mg/mL (~1 mM), pH 6 (imidazole)
[8] = 3 mg/mL (~1 mM), pH 7 (imidazole)
[9] = 3 mg/mL (~1 mM), pH 8 (serinamide)
[10] = 10 mg/mL (~3 mM), pH 7 (imidazole)

CC[C@H](C)[C@@H]1NC(=O)[C@H](CCCNC(=N)N)NC(=O)[C@H](CC(=O)O)NC(=O)[C@H](CCSC)NC(=O)[C@H](CCCCN)NC(=O)[C@H](CCCNC(=N)N)NC(=O)CNC(=O)[C@H](Cc2ccccc2)NC(=O)[C@@H](NC(=O)CNC(=O)[C@H](CO)NC(=O)CNC(=O)[C@H](CCC(N)=O)NC(=O)[C@@H](NC(=O)[C@H](CCSC)NC(=O)[C@H](CCCCN)NC(=O)[C@@H]2CCCN2C(=O)[C@@H](N)CO)C(C)C)CSSC[C@@H](C(=O)N[C@@H](CCCCN)C(=O)N[C@H](C(=O)N[C@@H](CC(C)C)C(=O)N[C@@H](CCCNC(=N)N)C(=O)N[C@@H](CCCNC(=N)N)C(=O)N[C@@H](Cc2c[nH]cn2)C(=O)O)C(C)C)NC(=O)CNC(=O)[C@H](CC(C)C)NC(=O)CNC(=O)[C@H](CO)NC(=O)[C@H](CO)NC(=O)[C@H](CO)NC(=O)[C@H](CO)NC1=O [Nesiritide, nesiritide]
correlation between magnitude of applied current and steady state flux [1]: linear correlation
in vitro transport efficiency ([1]; silver donor electrode at anode, silver chloride counter electrode at cathode): about 0.14 mg/mAhr
free energy of adsorption to the HIC column, δΔ Gads ([2]; imidazole at pH 7, 10 mM ionic): 0.46 k J mole^−1
hydrophilicity by HIC ([2]; pH 7.0 imidazole 10 mM ionic, 32° C.): high measured hydrophilicity
[θ]222nm mean residue ellipticity ([3]; 0.8 mg/mL (1 mm path), pH 5.5 unbuffered, in water): −1984 deg cm^2 dmol^−1
[θ]222nm mean residue ellipticity ([3]; 32° C., 40% or 80% TFE or 1.8 M NaCl): ~3200 ° cm^2 dmol^−1
% Structure Estimate, α-Helix n → Π* (222 nm) [3, 6]: 6.4%
% Structure Estimate, α-Helix Π → Π* (208 nm) [3, 6]: 5.0%
% Structure Estimate, β-Sheet n → Π* (215 nm) [3, 6]: 5.1%
stability ([4]; pH 6, 7 or 8, without human epidermis, 32° C., 8-hour): considerable stability
stability ([4]; pH 6 and 7, 24-hour incubation at 32° C.): remained stable
degradation ([4]; pH 6 or 7, after 24 hours at 32° C.): minimal
stability ([4]; pH 8, 24-hour incubation at 32° C.): considerable loss of nesiritide
peptide degradation or change in disulfide bond in donor solutions ([4]; selected donor solutions following ET flux): no peptide degradation or change in the disulfide bond
Residual Pattern [5, 7]: nonideal
M(1 − vbar * p) observed [5, 7]: 630
Residual Pattern [5, 8]: flat
M(1 − vbar * p) observed [5, 8]: 644
Residual Pattern [5, 9]: polydisperse
M(1 − vbar * p) observed [5, 9]: 884
Residual Pattern [5, 10]: nonideal
M(1 − vbar * p) observed [5, 10]: 703
self-association ([5]; all conditions tested, by ultracentrifugation): no indication of self-association
association state ([5]; highest concentration analyzed, 3 mM, 10 mg/mL at pH 7 in 10 mM ionic buffer): remained monomeric
